Laboratory results reported in patent publication US20160166627A1, “JOINT HEALTH COMPOSITIONS” (NESTEC S.A., priority 2013, published 2016).
Counter-ions that a name gives are not always drawn.

System: tumor necrosis factor α (TNF-α)
Assay: Serum TNF-α (inflammation marker) in ovariectomized rats, Rat TNF-α Platinum ELISA
Format: in vivo, Sprague-Dawley rats
Conditions: week 12 (end of study), vs OVX group, P<0.05
Procedure: Ovariectomized (OVX) rats were used as a model to mimic osteoarthritis in healthy postmenopausal women. The effect of fructus corni on suppressing markers of cartilage degeneration, cross linked C-telopeptide of type 2 collagen (CTX-II) and inflammation, tumor necrosis factor α (TNF-α), was examined. Seven month-old female Sprague-Dawley rats were purchased from Beijing Weitong Lihua Laboratory Animal Centre. Surgery was performed by the research team in Shenyang Medical College. The rats were anaesthetized with Hypnorm™/Dormicum™ (1 part Hypnorm™+1 part Dormicum™+2 parts sterile water) given by injection at 0.2 ml/100 g body weight. After anaesthesia the animal was shaved on the back and the skin disinfected. A single incision in the skin was made above the spine, providing access to both ovaries. The muscles were cut to provide access and the ovaries were located and removed by cutting. The muscle on each side was closed with 1-2 stitches, and the skin was closed with 3-4 stitches. […] Rats in group F had free access to distilled water containing 0.5% glucosamine and the amount of water consumed was recorded for each rat. […] CTX-II was measured using the Serum Preclinical Cartilaps ELISA (Nordic Bioscience, Herlev, Denmark). […] Serum TNFα was measured using Rat TNF-α Platinum ELISA (eBioscience, USA) for the serum collected at the end of the study only. […] Data were expressed as means±SD. […]

SMILES: N[C@H]1C(O)O[C@H](CO)[C@@H](O)[C@@H]1O (stereo partly shown) [glucosamine, Glucosamine (GS) hydrochloride]
- serum TNF-α concentration, increase induced by OVX: not observed
